Laboratory results as given in patent publication US20050143336A1 (priority 2003, published 2005).

Key:
C3H mice = experiment: Survival of mice given p38MAPK or pJNK inhibitor before FUS1-nanoparticles; assay type: in vivo
Experimental: The amount of FUS1 plasmid DNA delivered was 100 μg. Animals were injected intravenously with FUS1-nanoparticles and animal survival monitored for 25 days.

p44/42 MAPK = conditions: MRC-9 cells, 10, 30 μM prior to FUS1-nanoparticles
Experimental: In vitro experiments. To determine the effect of FUS1-nanoparticles on the activation of signaling molecules associated with inflammation, MRC-9 fibroblast cells were seeded in six-well plates (5×10^5 cells/well) and incubated overnight at 37° C. and 5% CO2. […] Two-three hours after treatment, cells were transfected with FUS1-nanoparticles (2.5 μg DNA) in 0.2% serum medium. Cells were harvested at different time-points (2 h, 4 h, 15 h) after transfection, washed, and cell lysates prepared as previously described (Ramesh et al., 2001a). Untransfected cells treated with PBS served as control in these experiments. Cell lysates were subjected to western blotting analysis and probed with various antibodies as previously described (Ramesh et al., 2001b; Ito et al., 2003). In all the experiments, β-actin was detected using anti-β-actin antibody (Sigma Chemicals, St. Louis, Mo.) as a measure of internal loading control.

[1] = inhibitor 15 mg/kg intraperitoneally 24 h and 3 h prior to FUS1-nanoparticles (100 μg DNA) i.v., monitored 25 days

For `C[S+]([O-])c1ccc(-c2nc(-c3ccncc3)c(-c3ccc(F)cc3)[nH]2)cc1` (stereo not shown) [SB 203580], the survival (C3H mice; [1]) was 100% and the “survival” value (C3H mice; two i.p. doses at 24 h and 3 h before complex) was “Prolonged survival”.
For `N#CC(=C(/N)Sc1ccccc1N)/C(C#N)=C(\N)Sc1ccccc1N` [U0126], the “p44/42 MAPK expression and downstream substrates” value (p44/42 MAPK) was “significant inhibition”.
With `O=C1c2ccccc2-c2n[nH]c3cccc1c23` [pJNK inhibitor] the survival (C3H mice; [1]) was 33%.
